For data set [1], the system named is Tomato late blight fungus (Phytophthora infestans). Put plainly: whole plant or invertebrate. In kind it is in vivo. The conditions noted are these: foliar, 96 h, read-out: control value.
Data set [2] concerns wheat leaf rust fungus (Puccinia recondita). Put plainly: Wheat leaf rust control test (foliar spray on wheat seedlings). In kind it is in vivo. The settings on record: 240 h, 125 ppm active ingredient, sprayed on wheat seedlings (variety Norin 61) before inoculation, 10 days, vs untreated.
Data set [3] relates to cucumber gray mold fungus (Botrytis cinerea). In words: Cucumber gray mold control test (foliar spray on cucumber seedlings). The conditions noted are these: in Cucumis sativus, 96 h, read-out: control value.
Data set [4] deals with Apple scab fungus (Venturia inaequalis). In words: Apple scab control test (foliar spray on apple seedlings). In kind it is in vivo. The settings on record: 125 ppm active ingredient, sprayed on apple seedlings (variety Orin) before inoculation, vs untreated. On the procedure: The dilution was sprayed to apple seedlings (variety “Orin”, 3 to 4 leaf stage) grown in clay pots. […] The control value was calculated by the following equation. [formula]

From patent US10111437B2, “Substituted guanidines as fungicides” (Nippon Soda Co., Ltd., priority 2015, dated 2018) come the findings set out here.

Structures are written as SMILES. Counter-ions that a name gives are not always drawn.

As for `N=C(N)c1ccc(OCCCCCn2ccn(CCOc3ccc(C(=N)N)cc3)c2=N)cc1` (as salt: hydrochloride) [compound 93], the melting point lay within 183 to 187 °C. In the case of `Cc1cn(CCCOc2ccc(C(=N)N)cc2)c(=N)n1CCCOc1ccc(C(=N)N)cc1` (as salt: hydrochloride) [compound 114], the melting point is 182 to 186 °C. With `N=C(N)c1ccc(OCCCn2ccn(CCCc3cc4cc(C(=N)N)ccc4o3)c2=N)cc1` (as salt: hydrochloride) [compound 126], the melting point lay within 227 to 236 °C. The compound `N/C(=N\O)c1ccc(OCCCn2ccn(CCCOc3ccc(/C(N)=N/O)cc3)c2=NC(=O)C(F)(F)F)cc1` [compound 55, N-[1,3-bis[3-[4-[N′-hydroxycarbamimidoyl]phenoxy]propyl]-1,3-dihydro-2H-imidazol-2-ylidene]-2,2,2-trifluoroacetamide] returned a melting point of 187 to 201 °C. Regarding `N=C(NCCCc1cc2cc(C(=N)N)ccc2o1)NCCCc1cc2cc(C(=N)N)ccc2o1` (as salt: hydrochloride) [compound 80], the melting point was 174 to 182 °C. With `N=C(N)c1ccc(OCCCn2ccn(CCCOc3ccc(C(=N)N)c(F)c3)c2=N)cc1F` (as salt: hydrochloride) [compound 103], the melting point lay within 183 to 187 °C. Still for that read-out and setting: for `N=C(N)c1ccc(SCCCn2ccn(CCCSc3ccc(C(=N)N)cc3)c2=N)cc1` (as salt: hydrochloride) [compound 181] the value was 169 to 172 °C; for `Cc1c(C)n(CCCOc2ccc(C(=N)N)cc2)c(=N)n1CCCOc1ccc(C(=N)N)cc1` (as salt: hydrochloride) [compound 109], 188 to 199 °C.

As for `N=C(NCC#Cc1ccc(C(=N)N)cc1)NCC#Cc1ccc(C(=N)N)cc1` (as salt: hydrochloride) [compound 155], the melting point was determined as 220 °C. `N=C(N)c1ccc(OCCCCn2ccn(CCCCOc3ccc(C(=N)N)cc3)c2=N)cc1` (as salt: hydrochloride) [compound 36, 4-[4-[3-[4-(4-carbamimidoylphenoxy)butyl]-2-imino-imidazol-1-yl]butoxy]benzamidine] registered a melting point of 178 to 180 °C. Still for that read-out and setting: for `N=C(NCCOCc1ccc(C(=N)N)cc1)NCCOCc1ccc(C(=N)N)cc1` (as salt: hydrochloride) [compound 226] the value was 262 to 267 °C.

`N=C(N)c1ccc(OCCCn2ccn(CCCOc3ccc(C(=N)N)cc3Cl)c2=N)c(Cl)c1` (as salt: hydrochloride) [compound 99] registered a melting point of 184 to 190 °C. In turn, `N=C(NCCCOc1ccc(C(=N)N)c(F)c1)NCCCOc1ccc(C(=N)N)c(F)c1` (as salt: hydrochloride) [compound 82] gave a melting point of 181 to 185 °C. Take `N=C(NCCCOCc1ccc(C(=N)N)cc1)NCCCOc1ccc(C(=N)N)cc1` (as salt: trifluoroacetate) [compound 143]: the melting point lay within 192 to 197 °C.

Take `N=C(NCCCCOc1ccc(C(=N)N)cc1)NCCCCOc1ccc(C(=N)N)cn1` [compound 194]: the pest or weed control at 125 ppm in data set [1], in data set [2], in data set [3] and in data set [4] was no less than 75% each time. For `N=C(N)NCCCCCCCCNC(=N)NCCOCc1ccc(C2=NCCCN2)cc1` [compound 220], the pest or weed control at 125 ppm in data set [1], in data set [2], in data set [3] and in data set [4] was no less than 75% in each case.

For the compound `N=C(N)NCCCCCCCCCNC(=N)NCCOc1ccc(C(=N)N)cc1` [compound 234], the pest or weed control at 125 ppm in data set [1], in data set [2], in data set [3] and in data set [4] was no less than 75% each time. Take `N=C(N)NCCCCCCCCNC(=N)NCCOc1ccc(C2=NCC(N)CN2)cc1` (stereo not shown) [compound 285]: the pest or weed control at 125 ppm in data set [1], in data set [2], in data set [3] and in data set [4] was no less than 75% in each case. As for `N=C(NCC/C=C/c1ccc(C(=N)N)cc1)NCC/C=C/c1ccc(C(=N)N)cc1` (as salt: hydrochloride) [compound 151], the melting point fell in the range of 179 to 181 °C. In turn, `N=C(N)c1ccc(OCCCn2ccn(CCCSc3ccc(C(=N)N)cc3)c2=N)cc1` (as salt: hydrochloride) [compound 173] registered a melting point of 168 to 171 °C. `CNC(=N)c1ccc(OCCCn2ccn(CCCOc3ccc(C(=N)N)cc3)c2=N)cc1` [compound 122]: the pest or weed control at 125 ppm in data set [1], in data set [2], in data set [3] and in data set [4] was no less than 75% throughout. With `Cc1cc(C(=N)N)ccc1OCCCCNC(=N)NCCCCOc1ccc(C(=N)N)cc1C` (as salt: hydrochloride) [compound 84], the melting point lay in the range of 171 to 180 °C.

For `N=C(N)NCCCCCCCCNC(=N)NCCCCOc1ccc(C2=NCC(N)CN2)cc1` (stereo not shown) [compound 279], the pest or weed control at 125 ppm in data set [1], in data set [2], in data set [3] and in data set [4] was no less than 75% each time. With `N=C(N)NCCCCCCCn1ccn(CCCOc2ccc(C(=N)N)cc2)c1=N` [compound 25, 4-[3-[3-(7-guanidinoheptyl)-2-imino-imidazol-1-yl]propoxy]benzamidine], the pest or weed control at 125 ppm in data set [1], in data set [2], in data set [3] and in data set [4] was no less than 75% in each case. As to `N=C(N)NCCCCCCCNC(=N)NCCCOCc1ccc(C(=N)N)cc1` [compound 179], the pest or weed control at 125 ppm in data set [1], in data set [2], in data set [3] and in data set [4] was no less than 75% in each case.
